Data published in patent publication US9840513B2 (AbbVie S.à.r.l., priority 2015, dated 2017).
pEC50: −log10 of the molar value.

What was measured:
[1] = target: T1, F508delCFTR in primary hBE cells with F508del/F508del CFTR mutation (Homo sapiens, UniProt P13569, DEL508-508); assay: Transepithelial Clamp Circuit on Human Bronchial Epithelial Cells Conductance Assay (hBE-TECC); type: cell-based; conditions: for pEC50: primary hBE cells F508del/F508del, 18-24 hours at 37° C., equivalent short circuit current, 6 concentrations; for Maximum % activity (%): relative to positive control (3 μM) coupled with control potentiator
T1 construct: cells isolated from CF patients with the homozygous mutation; endogenous in cells; host or cells: primary human bronchial epithelial (hBE) cells from F508del/F508del CF patients
T1 sequence (P13569 with tags, fused parts or gaps DEL508-508): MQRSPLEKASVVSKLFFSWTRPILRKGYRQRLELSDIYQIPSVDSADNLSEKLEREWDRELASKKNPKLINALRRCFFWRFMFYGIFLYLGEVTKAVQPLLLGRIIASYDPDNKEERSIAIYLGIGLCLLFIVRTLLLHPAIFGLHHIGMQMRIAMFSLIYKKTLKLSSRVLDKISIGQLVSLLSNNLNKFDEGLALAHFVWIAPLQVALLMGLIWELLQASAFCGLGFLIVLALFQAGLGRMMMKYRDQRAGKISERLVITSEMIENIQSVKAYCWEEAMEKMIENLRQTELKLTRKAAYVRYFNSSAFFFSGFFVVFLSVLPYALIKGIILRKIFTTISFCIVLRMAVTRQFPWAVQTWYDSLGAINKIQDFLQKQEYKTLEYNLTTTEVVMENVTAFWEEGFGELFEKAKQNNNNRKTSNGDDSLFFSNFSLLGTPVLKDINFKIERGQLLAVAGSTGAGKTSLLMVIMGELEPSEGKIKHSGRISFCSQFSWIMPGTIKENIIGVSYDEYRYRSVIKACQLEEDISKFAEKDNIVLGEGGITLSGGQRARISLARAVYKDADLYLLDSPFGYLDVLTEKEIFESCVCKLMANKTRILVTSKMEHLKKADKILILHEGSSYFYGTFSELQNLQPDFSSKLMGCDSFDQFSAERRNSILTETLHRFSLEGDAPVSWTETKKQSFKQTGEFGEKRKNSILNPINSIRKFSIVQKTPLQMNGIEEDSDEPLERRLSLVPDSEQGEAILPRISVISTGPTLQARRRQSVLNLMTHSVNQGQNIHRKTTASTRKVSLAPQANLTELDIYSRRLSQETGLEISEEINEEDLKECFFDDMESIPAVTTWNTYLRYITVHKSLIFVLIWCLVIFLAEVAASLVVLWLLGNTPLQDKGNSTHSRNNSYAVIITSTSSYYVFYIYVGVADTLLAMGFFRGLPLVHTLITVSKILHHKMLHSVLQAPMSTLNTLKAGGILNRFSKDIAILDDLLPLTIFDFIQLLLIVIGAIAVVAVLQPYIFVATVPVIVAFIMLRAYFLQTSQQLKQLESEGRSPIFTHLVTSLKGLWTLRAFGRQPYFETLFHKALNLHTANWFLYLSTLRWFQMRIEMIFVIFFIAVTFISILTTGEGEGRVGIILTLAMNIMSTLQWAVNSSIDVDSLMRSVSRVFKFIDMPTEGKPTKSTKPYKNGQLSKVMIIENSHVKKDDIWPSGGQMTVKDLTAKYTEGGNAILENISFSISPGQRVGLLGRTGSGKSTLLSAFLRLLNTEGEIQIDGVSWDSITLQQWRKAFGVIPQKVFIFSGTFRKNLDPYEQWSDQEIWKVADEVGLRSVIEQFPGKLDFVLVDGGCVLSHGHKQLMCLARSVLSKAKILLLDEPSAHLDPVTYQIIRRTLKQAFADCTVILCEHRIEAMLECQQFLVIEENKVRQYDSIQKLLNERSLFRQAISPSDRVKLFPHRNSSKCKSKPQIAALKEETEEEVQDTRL
In short: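 Primary F508del/F508del hBE cells grown 35 days at air-liquid interface, treated basolaterally with correctors 18-24 h at 37° C. Ieq (Vt/Rt) at 36.5° C, pH 7.4, after benzamil, forskolin 10 μM, control potentiator, bumetanide; 6 concentrations normalized to DMSO and 3 μM positive-control corrector, EC50 by 4-parameter fit.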

[2] = target: T2, F508delCFTR cell surface expression in CFBE41o-F508delCFTR-HRP cells (Homo sapiens, UniProt P13569, DEL508-508); assay: Cell Surface Expression-Horse Radish Peroxidase (CSE-HRP) Assay; type: cell-based; conditions: for pEC50: CFBE41o-F508delCFTR-HRP cells, 18-24 hours at 33° C., 8-point curve, highest concentration 20 μM; for Maximum % activity (%): maximum at any tested concentration, normalized to on-plate positive control (3 μM)
T2 construct: fused on or other part: Horseradish peroxidase (HRP) reporter inserted in the fourth exofacial (extracellular) loop of CFTR; expression is doxycycline-inducible
T2 sequence (P13569 with tags, fused parts or gaps DEL508-508 limits assumed): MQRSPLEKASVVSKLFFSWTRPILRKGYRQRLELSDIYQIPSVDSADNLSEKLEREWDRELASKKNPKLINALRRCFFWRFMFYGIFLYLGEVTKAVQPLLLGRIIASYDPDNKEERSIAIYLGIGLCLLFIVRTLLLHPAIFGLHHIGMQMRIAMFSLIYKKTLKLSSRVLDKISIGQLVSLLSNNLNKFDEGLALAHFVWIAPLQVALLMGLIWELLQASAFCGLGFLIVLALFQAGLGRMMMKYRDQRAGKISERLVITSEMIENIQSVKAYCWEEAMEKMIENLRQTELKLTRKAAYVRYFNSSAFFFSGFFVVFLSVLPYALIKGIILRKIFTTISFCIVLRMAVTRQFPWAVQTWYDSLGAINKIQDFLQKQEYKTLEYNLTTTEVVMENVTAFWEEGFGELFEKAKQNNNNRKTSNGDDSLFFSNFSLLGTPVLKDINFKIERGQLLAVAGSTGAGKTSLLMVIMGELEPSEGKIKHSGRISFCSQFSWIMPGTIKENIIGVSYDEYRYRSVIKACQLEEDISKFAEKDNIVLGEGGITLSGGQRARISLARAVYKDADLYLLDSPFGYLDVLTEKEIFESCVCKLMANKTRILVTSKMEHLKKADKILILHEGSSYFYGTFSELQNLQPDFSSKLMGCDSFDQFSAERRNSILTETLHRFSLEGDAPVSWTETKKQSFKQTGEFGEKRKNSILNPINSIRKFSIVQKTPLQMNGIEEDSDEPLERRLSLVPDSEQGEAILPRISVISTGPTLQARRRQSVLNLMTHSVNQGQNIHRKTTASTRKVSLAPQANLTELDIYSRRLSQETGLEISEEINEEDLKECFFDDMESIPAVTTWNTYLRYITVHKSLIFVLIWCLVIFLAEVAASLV
T2 sequence (P13569 919-1480 limits assumed, stated change not applied): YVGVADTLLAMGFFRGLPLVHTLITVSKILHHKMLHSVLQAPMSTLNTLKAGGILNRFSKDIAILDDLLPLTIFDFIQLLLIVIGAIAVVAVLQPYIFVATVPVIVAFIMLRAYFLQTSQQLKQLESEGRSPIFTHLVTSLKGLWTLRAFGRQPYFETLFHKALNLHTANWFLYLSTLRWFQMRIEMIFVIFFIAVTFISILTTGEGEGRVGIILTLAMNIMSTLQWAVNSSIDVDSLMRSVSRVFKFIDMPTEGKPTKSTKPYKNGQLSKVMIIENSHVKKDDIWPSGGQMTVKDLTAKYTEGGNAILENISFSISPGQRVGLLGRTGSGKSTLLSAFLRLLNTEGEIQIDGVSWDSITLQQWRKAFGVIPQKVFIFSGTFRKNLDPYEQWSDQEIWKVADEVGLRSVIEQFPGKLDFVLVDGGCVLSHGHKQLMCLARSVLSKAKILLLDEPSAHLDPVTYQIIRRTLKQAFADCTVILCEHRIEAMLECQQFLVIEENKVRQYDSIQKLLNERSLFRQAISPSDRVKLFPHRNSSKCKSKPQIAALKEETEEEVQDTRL
In short: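 Correctors incubated 18-24 h at 33 °C on doxycycline-induced (0.5 μg/mL, 72 h) CFBE41o-F508delCFTR-HRP cells, 3-fold series from 20 μM. After DPBS washes, luminol luminescence read; activity expressed relative to DMSO and a 3 μM positive control, EC50 fitted from triplicate plates.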

| SMILES | pEC50 [1] | Maximum % activity (%) [1] [%] | pEC50 [2] | Maximum % activity (%) [2] [%] |
| --- | --- | --- | --- | --- |
| C[C@]1(C(=O)N[C@@H]2C[C@H]([C@H]3CC[C@@H](C(=O)O)CC3)Oc3cc(OC(F)(F)F)ccc32)COc2cc3c(cc21)OC(F)(F)O3 [Example 162, cis-4-[(2R,4R)-4-{[(7R)-2,2-difluoro-7-methyl-6,7-dihydro-2H-furo[2,3-f][1,3]benzodioxole-7-carbonyl]amino}-7-(trifluoromethoxy)-3,4-dihydro-2H-1-benzopyran-2-yl]cyclohexane-1-carboxylic acid] | 7.70 | 86 | 6.15 | 120 |
| C[C@]1(C(=O)N[C@@H]2C[C@H]([C@H]3CC[C@H](C(=O)O)CC3)Oc3cc(OC(F)(F)F)ccc32)CCc2cc3c(cc21)OC(F)(F)O3 [Example 167, trans-4-[(2R,4R)-4-{[(5S)-2,2-difluoro-5-methyl-6,7-dihydro-2H,5H-indeno[5,6-d][1,3]dioxole-5-carbonyl]amino}-7-(trifluoromethoxy)-3,4-dihydro-2H-1-benzopyran-2-yl]cyclohexane-1-carboxylic acid] | 7.06 | 112 | 7.28 | 135 |
| COc1ccc2c(c1)O[C@@H]([C@H]1CC[C@H](C(=O)O)CC1)C[C@H]2NC(=O)[C@@]1(C)CCc2cc3c(cc21)OC(F)(F)O3 [Example 168, trans-4-[(2R,4R)-4-{[(5S)-2,2-difluoro-5-methyl-6,7-dihydro-2H,5H-indeno[5,6-d][1,3]dioxole-5-carbonyl]amino}-7-methoxy-3,4-dihydro-2H-1-benzopyran-2-yl]cyclohexane-1-carboxylic acid] | 7.37 | 101 | 6.79 | 127 |
| CC1(c2cc3cc(NC(=O)[C@@]4(C)COc5cc6c(cc54)OC(F)(F)O6)c(F)cc3n2C[C@@H](O)CO)COC1 [Example 171, (7R)—N-{1-[(2R)-2,3-dihydroxypropyl]-6-fluoro-2-(3-methyloxetan-3-yl)-1H-indol-5-yl}-2,2-difluoro-7-methyl-6,7-dihydro-2H-furo[2,3-f][1,3]benzodioxole-7-carboxamide] | 6.45 | 45 | 6.18 | 92 |
| C[C@]1(C(=O)Nc2cc3cc(C4(CO)CCC4)[nH]c3cc2F)COc2cc3c(cc21)OC(F)(F)O3 [Example 172, (7R)-2,2-difluoro-N-{6-fluoro-2-[1-(hydroxymethyl)cyclobutyl]-1H-indol-5-yl}-7-methyl-6,7-dihydro-2H-furo[2,3-f][1,3]benzodioxole-7-carboxamide] | 7.01 | 50 | 6.02 | 210 |
| CC(C)(CO)c1cc2cc(NC(=O)[C@@]3(C)COc4cc5c(cc43)OC(F)(F)O5)c(F)cc2n1C[C@@H](O)CC#N [Example 179, (7R)—N-{1-[(2S)-3-cyano-2-hydroxypropyl]-6-fluoro-2-(1-hydroxy-2-methylpropan-2-yl)-1H-indol-5-yl}-2,2-difluoro-7-methyl-6,7-dihydro-2H-furo[2,3-f][1,3]benzodioxole-7-carboxamide] | 6.83 | 70 | 6.55 | 108 |
| CC1(C)COC(C)(C)c2c1n(C[C@@H](O)CO)c1cc(F)c(NC(=O)[C@@]3(C)COc4cc5c(cc43)OC(F)(F)O5)cc21 [Example 206, (7R)—N-{5-[(2R)-2,3-dihydroxypropyl]-7-fluoro-1,1,4,4-tetramethyl-1,3,4,5-tetrahydropyrano[4,3-b]indol-8-yl}-2,2-difluoro-7-methyl-6,7-dihydro-2H-furo[2,3-f][1,3]benzodioxole-7-carboxamide] | 5.99 | 79 | 5.71 | 84 |

The remaining lines, values ahead:

| pEC50 [1] | Maximum % activity (%) [1] [%] | pEC50 [2] | Maximum % activity (%) [2] [%] | SMILES |
| --- | --- | --- | --- | --- |
| 7.96 | 84 | 7.52 | 129 | C[C@]1(C(=O)N[C@@H]2C[C@H](C3(C(=O)O)CC3)Oc3cc(OC(F)(F)F)ccc32)COc2cc3c(cc21)OC(F)(F)O3 [Example 166, 1-[(2R,4R)-4-{[(7R)-2,2-difluoro-7-methyl-6,7-dihydro-2H-furo[2,3-f][1,3]benzodioxole-7-carbonyl]amino}-7-(trifluoromethoxy)-3,4-dihydro-2H-1-benzopyran-2-yl]cyclopropane-1-carboxylic acid] |
| 7.82 | 94 | 6.92 | 118 | COc1ccc2c(c1)O[C@@H](c1ccc(CO)cn1)C[C@H]2NC(=O)[C@@]1(C)COc2cc3c(cc21)OC(F)(F)O3 [Example 174, (7R)-2,2-difluoro-N-{(2R,4R)-2-[5-(hydroxymethyl)pyridin-2-yl]-7-methoxy-3,4-dihydro-2H-1-benzopyran-4-yl}-7-methyl-6,7-dihydro-2H-furo[2,3-f][1,3]benzodioxole-7-carboxamide] |
| 7.37 | 107 | 6.66 | 139 | COc1ccc2c(c1)O[C@@H](c1cnc(C(O)CO)cn1)C[C@H]2NC(=O)[C@@]1(C)COc2cc3c(cc21)OC(F)(F)O3 (stereo partly drawn) [Example 175, (7R)—N-{(2R,4R)-2-[5-(1,2-dihydroxyethyl)pyrazin-2-yl]-7-methoxy-3,4-dihydro-2H-1-benzopyran-4-yl}-2,2-difluoro-7-methyl-6,7-dihydro-2H-furo[2,3-f][1,3]benzodioxole-7-carboxamide] |
| 7.89 | 99 | 7.05 | 127 | C[C@]1(C(=O)N[C@@H]2C[C@H](c3ccc(CO)cn3)Oc3cc(OC(F)(F)F)ccc32)COc2cc3c(cc21)OC(F)(F)O3 [Example 177, (7R)-2,2-difluoro-N-[(2R,4R)-2-[5-(hydroxymethyl)pyridin-2-yl]-7-(trifluoromethoxy)-3,4-dihydro-2H-1-benzopyran-4-yl]-7-methyl-6,7-dihydro-2H-furo[2,3-f][1,3]benzodioxole-7-carboxamide] |
| 7.18 | 108 | 6.54 | 158 | COc1ccc2c(c1)O[C@@H](c1ccc(CO)nc1)C[C@H]2NC(=O)[C@@]1(C)COc2cc3c(cc21)OC(F)(F)O3 [Example 178, (7R)-2,2-difluoro-N-{(2R,4R)-2-[6-(hydroxymethyl)pyridin-3-yl]-7-methoxy-3,4-dihydro-2H-1-benzopyran-4-yl}-7-methyl-6,7-dihydro-2H-furo[2,3-f][1,3]benzodioxole-7-carboxamide] |
| 8.22 | 105 | 7.40 | 130 | COc1ccc2c(c1)O[C@@H](c1ccc(=O)[nH]n1)C[C@H]2NC(=O)[C@@]1(C)COc2cc3c(cc21)OC(F)(F)O3 [Example 197, (7R)-2,2-difluoro-N-[(2R,4R)-7-methoxy-2-(6-oxo-1,6-dihydropyridazin-3-yl)-3,4-dihydro-2H-1-benzopyran-4-yl]-7-methyl-6,7-dihydro-2H-furo[2,3-f][1,3]benzodioxole-7-carboxamide] |
| 7.39 | 82 | 7.10 | 117 | COc1ccc2c(c1)O[C@@H](c1ccc(C(=O)N3CCN(CCO)CC3)cn1)C[C@H]2NC(=O)[C@@]1(C)COc2cc3c(cc21)OC(F)(F)O3 [Example 213, (7R)-2,2-difluoro-N-[(2R,4R)-2-{5-[4-(2-hydroxyethyl)piperazine-1-carbonyl]pyridin-2-yl}-7-methoxy-3,4-dihydro-2H-1-benzopyran-4-yl]-7-methyl-6,7-dihydro-2H-furo[2,3-f][1,3]benzodioxole-7-carboxamide] |
| 7.80 | 88 | 7.22 | 114 | COc1ccc2c(c1)O[C@@H](c1ccc(C(=O)NCC(C)(C)O)cn1)C[C@H]2NC(=O)[C@@]1(C)COc2cc3c(cc21)OC(F)(F)O3 [Example 214, 6-[(2R,4R)-4-{[(7R)-2,2-difluoro-7-methyl-6,7-dihydro-2H-furo[2,3-f][1,3]benzodioxole-7-carbonyl]amino}-7-methoxy-3,4-dihydro-2H-1-benzopyran-2-yl]-N-(2-hydroxy-2-methylpropyl)pyridine-3-carboxamide] |
| 8.00 | 94 | 8.00 | 112 | COc1ccc2c(c1)O[C@@H](c1ccc(C(=O)N3CCOCC3)cn1)C[C@H]2NC(=O)[C@@]1(C)COc2cc3c(cc21)OC(F)(F)O3 [Example 220, (7R)-2,2-difluoro-N-{(2R,4R)-7-methoxy-2-[5-(morpholine-4-carbonyl)pyridin-2-yl]-3,4-dihydro-2H-1-benzopyran-4-yl}-7-methyl-6,7-dihydro-2H-furo[2,3-f][1,3]benzodioxole-7-carboxamide] |
